According to patent US9718879B2, “Methods of treating pain by inhibition of VGF activity” (IMPERIAL INNOVATIONS LTD., priority 2012, dated 2017):
Entries after “also recorded” stand apart in the source; their conditions may differ. No end group written: not given here.

Legend:
[1] = test system: cultured bone marrow-derived macrophages; test: TLQP-21-elicited intracellular Ca2+ increase in cultured macrophages (Fluo-4); type: cell-based; conditions: for increase in intracellular Ca2+ levels: 100 nM peptide, cultured macrophages, Fluo-4
Description: (§1) Cell images show the Fluo-4 fluorescence associated with different time points during the recording.
(§2) A possible explanation for the absence of a Ca2+ response from a second application of TLQP-21 is that there is a biological de-sensitisation occurring such as phosphorylation of the receptor. It is also possible that this could be due to depletion of Ca2+ in internal stores such as ER, however, this is less likely because the de-sensitisation occurs even with sufficient time (2 hours) to recover and replenish the Ca2+, and ATP treatment gave an increase in intracellular Ca2+ levels. Actually this de-sensitisation by TLQP-21 has also been observed in cerebellar granule cells.
These peptides were either commercially sourced or provided by Neusentis/Pfizer. The effects of VGF peptides on sensory neurons was analysed using whole-cell current-clamp recordings on cultured DRG neurons. Responses of cells to depolarising current pulses will be analysed before and after superfusion of peptides and their efficacy and potency established. The nociceptive phenotype of the cells was confirmed by superfusing capsaicin to the cells at the end of the recordings, and analysing the action potential and current threshold of the cells. Based on our pilot data with LQEQ-19, we expected that some of these peptides will increase the activity of nociceptive neurons. The activation of microglia and macrophage was studied on two parameters, intracellular Ca^2+ increase and P38 MAP kinase phosphorylation. The phosphorylation levels of P38 MAP kinase was investigated as shown before^20. Once we identified peptides capable of activating sensory neurons and/or microglia/macrophage, confirmed the specific effects using scrambled peptides.

cultured brain microglia = test: Intracellular Ca2+ increase in cultured brain microglia; type: cell-based, rat; conditions: 100 nM
Description: as §1, §2
(§3) Ccl11 has been linked to inflammation^23, while Cxcl9 is known as a natural antagonist to Ccl11 receptor CCR3^24. We then used Sulfo-EMCS-conjugated TLQP-21 to purify and identify receptor(s) for TLQP-21. […] The membrane fractions of rat brain was incubated with the crosslinker-conjugated TLQP-21, and analysed by Tricine-PAGE and Western blotting using Streptavidin-HRP for the biotin tag on TLQP-21. […] The membrane fraction of rat brain was applied to a TLQP-21 attached column, and the elutions were analysed on SDS-PAGE and silver staining for direct comparison to the negative control (without TLQP-21). […] The ˜30 kDa bands from both gels were cut out, trypsinised and analysed using LC-MS/MS Orbitrap.

paw withdrawal threshold = test: Intraplantar (hind paw) injection of peptide-treated macrophages, Von Frey paw withdrawal threshold; type: in vivo, rat
Description: FIG. 6A-C Intraplantar injection of macrophages stimulated with TLQP-21 can evoke mechanical hypersensitivity, and anti-gC1qR antibody reverses mechanical hypersensitivity in partial sciatic nerve ligation (PSNL) model. a, 80,000 macrophages treated with 100 nM TLQP-21 (closed circle) and scrambled TLQP-21 (open circle) for 24 hours have been intraplantarly injected into 3 weeks old male rats. Mechanical sensitivity was examined by electrical Von Frey test. […] C, Time course of paw withdrawal thresholds to Von Frey mechanical stimulation on an left hind paw of PSNL model rats. The left sciatic nerve was exposed, tied with non-absorbable silk thread, and wrapped loosely with a oxidized regenerated cellulose previously soaked in 200 μl of PBS (open triangle) or PBS containing 25 μg of anti-gC1qR (closed circle) or control antibodies (open circle). […] Mean±s.e.m. *P<0.05 vs controls.
Macrophages were treated with either 100 nM TLQP-21 or 100 nM scrambled TLQP-21 for 24 hours in culture. Following wash with PBS, macrophages (35,000 cells in 50 μl) were injected into the left hind paw. Ipsilateral paw withdrawal latency to Von Frey mechanical stimulation was measured at 1, 2, and 3 days after injection (n=9).
We hypothesised that macrophages stimulated by TLQP-21 affects sensory neurons and alter the mechanical sensitivity. We tested this hypothesis by measuring paw withdrawal thresholds in normal rats after hind paw injection of cultured macrophages that had been pre-treated with either TLQP-21 or ScrTLQP-21 for 24 hours. […] This effect lasted for 48 hours after injection. […] We then examined if in vivo application of the neutralising gC1qR antibody can prevent or delay development of neuropathic pain in PSNL model rats. The gC1qR antibody was applied to the site next to nerve ligation, in a cellulose membrane soaked form.

[2] = test system: chemokines Ccl11 and Cxcl9 in microglia; test: PCR array of chemokine expression in microglia upon TLQP-21 stimulation; type: cell-based
gC1qR = target: T1, gC1qR (Rattus norvegicus, UniProt O35796); test: Receptor identification by chemical cross-linking / monomeric avidin column and LC-MS/MS; type: binding; conditions: rat brain / spinal cord membrane fractions; ~30 kDa band identified by LC-MS/MS
T1 construct: from tissue; host or cells: membrane fractions of rat brain (P4) and of 6 weeks old rat brain and spinal cord
T1 sequence (O35796 72-279): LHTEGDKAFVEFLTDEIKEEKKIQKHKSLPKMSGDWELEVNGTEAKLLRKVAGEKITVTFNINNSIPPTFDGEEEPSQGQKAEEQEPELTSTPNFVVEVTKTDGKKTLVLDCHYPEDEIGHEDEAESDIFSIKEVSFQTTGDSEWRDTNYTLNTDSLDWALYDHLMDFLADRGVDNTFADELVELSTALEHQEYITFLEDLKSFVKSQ
Description: FIG. 3A-F gC1qR is the receptor for TLQP-21. a, Biotinylated TLQP-21 was conjugated to Sulfo-EMCS cross-linker, and applied to membrane fractions of 6 weeks old rat brain and spinal cord for cross-linking (boric acid buffer, pH 8, with 150 mM NaCl, 3 hours incubation on ice). The reaction was terminated using 50 mM Tris buffer, and samples were ethanol precipitated and resolved using Tricine-PAGE and visualised by Western blot analysis by streptavidin-horse radish peroxidase. […] C, The ˜30 kDa band was analysed by LC-MS/MS Orbitrap following trypsinisation.
as §3, with “CCR3^24.” for “CCR3^24. We then used Sulfo-EMCS-conjugated TLQP-21 to purify and identify receptor(s) for TLQP-21.”, “Orbitrap. […]” for “Orbitrap.”
To elucidate the identity of the ˜30 kDa protein, which were apparent in two different experiments, the protein band from the monomeric avidin experiment was analysed using LC-MS/MS Orbitrap. […]

pain behaviour = conditions: in vivo; cited from earlier work
[3] = test system: p38 MAP kinase in spinal microglia; conditions: mice injected intrathecally; cited from earlier work
[4] = test system: p38 MAP kinase in spinal microglia and BV-2 microglial cell line; conditions: cited from earlier work
[5] = test system: ipsilateral hind limb mechanical sensitivity; test: Intraplantar injection of LQEQ-19, sensitivity to mechanical stimuli; type: in vivo, rat; conditions: 275 microgram
Source text: (§4) On the other hand, another VGF-derived peptide LQEQ-19 seems to have a direct role on DRG neurons. […] In summary, there are at least three active VGF peptides involved in pain pathways, i.e., TLQP-62, TLQP-21 and LQEQ-19, and four types of cells, namely, spinal microglia, macrophage, nociceptive DRG neurons, and dorsal horn neurons, which respond to these peptides. In this project we will focus on the putative role of VGF peptides in regulating the activity/excitability of DRG neurons and the novel VGF-induced signaling pathway in microglia/macrophage.

[6] = test system: nociceptors (C-fibre component of compound action potentials in dorsal roots); test: Compound action potential recordings in dorsal roots after application to DRG; conditions: application of LQEQ-19 to DRG, in vitro
Source text: (A) Typical average trace of 12 compound action potential recordings. The record was divided into 3 components according to the conduction velocities of Aβ fibres (6.2 m/s-2.1 m/s), Ad fibres (2.1 m/s-0.8 m/s) and C fibres (0.8 m/s-0.1 m/s) fibres. (B) Maximum amplitudes of Aβ, Ad and C components of compound action potentials. (C) Area under the curve of Aβ, Ad and C compound action potential. Bold line on the X axis indicates LQEQ-19 application
as §4

[7] = test system: mechanical and cold sensitivity; conditions: intrathecal application to rats; cited from earlier work
spinal cord slices = conditions: cited from earlier work
hippocampal neurons = conditions: cited from earlier work

For “cross-linker-conjugated TLQP-21: TLQP-21 with N-terminal biotin and extra C-terminal cysteine, conjugated to Sulfo-EMCS cross-linker (TLQPPASSRRRHFHHALPPARC; cyclised or stapled)”, the “increase in intracellular Ca2+ levels” value [1] was “able to induce an increase in intracellular Ca2+ levels similar to the wild type TLQP-21”.

With “Thr-Leu-Gln-Pro-Pro-Ala-Ser-Ser-Arg-Arg-Arg-His-Phe-His-His-Ala-Leu-Pro-Pro-Ala-Arg [TLQP-21]” the “increase in intracellular Ca2+” value (cultured brain microglia) was “causes an increase in intracellular Ca2+; also recorded: responded to TLQP-21 similarly to macrophages”, the “duration of the effect on paw withdrawal threshold after injection” value (paw withdrawal threshold; injection of macrophages stimulated by TLQP-21) was 48 h and the tactile allodynia (paw withdrawal threshold; macrophages treated with 100 nM peptide 24 hours, 35,000 cells in 50 μl into left hind paw, 1, 2, 3 days, n=9) was “produced tactile allodynia”. The paw withdrawal threshold (paw withdrawal threshold; macrophages treated with 100 nM peptide for 24 hours, 80,000 cells injected intraplantarly, Von Frey) was “caused reduction of paw withdrawal thresholds at 24 and 48 hours after injection; also recorded: decreased markedly”, the Ccl11 upregulated [2] was 2.78 fold and the Cxcl9 downregulated [2] was 2.28 fold. For the same molecule, the “binding to the receptor gC1qR” value (gC1qR) was “co-purified with TLQP-21; also recorded: binds to the receptor gC1qR”, the “de-sensitisation to subsequent TLQP-21 stimulation” value ([1]; 100 nM TLQP-21, macrophages, ATP response not desensitised) was “densensitises macrophage to further TLQP-21 stimulation; also recorded: induced de-sensitisation to subsequent TLQP-21 treatments” and the “increase in intracellular Ca2+ levels” value [1] was “elicits an increase in intracellular Ca2+ levels; also recorded: drives an increase in intracellular Ca2+; also recorded: causes intracellular Ca^2+ increase; also recorded: caused transient increase in intracellular Ca2+ levels”. The “intracellular Ca2+ increase when extracellular Ca2+ is depleted” value ([1]; macrophages, extracellular Ca2+ depleted) was “still observed”.

In the case of “LQEQEELENYIEHVLLHRP [VGF-derived peptide]”, the “pain behaviour in the formalin test” value (pain behaviour) is given as “enhances pain behaviour”, the “phosphorylated p38 MAP kinase in spinal microglia” value [3] is given as “increase of phosphorylated p38 MAP kinase” and the “p38 MAP kinase phosphorylation” value [4] is given as “causes P38 MAP kinase phosphorylation; also recorded: induces p38 MAP kinase phosphorylation”. For the same molecule, the “time of development of hypersensitivity after injection” value [5] was 10 min, the “hypersensitivity to mechanical stimuli” value ([5]; ipsilateral hind limb, p≦0.001 vs vehicle) was “associated with a hypersensitivity to mechanical stimuli; also recorded: causes a mechanical hypersensitivity in vivo” and the “C-fibre component of compound action potentials (amplitude, area under the curve); sensitisation of nociceptors” value [6] was “sensitises nociceptors in vitro; also recorded: significantly increases both the amplitude and the area under the curve”.

B1: Thr-Leu-Gln-Pro-Pro-Ala-Ser-Ser-Arg-Arg-Arg-His-Phe-His-His-Ala-Leu-Pro-Pro-Ala-Arg-His-His-Pro-Asp-Leu-Glu-Ala-Gln-Ala-Arg-Arg-Ala-Gln-Glu-Glu-Ala-Asp-Ala-Glu-Glu-Arg-Arg-Leu-Gln-Glu-Gln-Glu-Glu-Leu- … (peptide)
chain: TLQPPASSRRRHFHHALPPARHHPDLEAQARRAQEEADAEERRLQEQEELENYIEHVLLHRP
modifications: TLQP-62 peptide from VGF
notes: VGF-derived peptide
In the case of B1, the “pain behaviour (mechanical and cold allodynia)” value [7] is given as “induces pain behaviour (cold and mechanical hypersensitivity); also recorded: long-lasting mechanical and cold behavioural allodynia”, the “frequency of spontaneous excitatory post synaptic currents” value (spinal cord slices) is given as “increase in the frequency of spontaneous excitatory post synaptic currents” and the synaptic activity (hippocampal neurons) is given as “increase synaptic activity”.
